Results taken from patent US5089623A, “Certain imidate insecticides” (Imperial Chemical Industries Plc, priority 1990, dated 1992).

Key:
Format in all cases: in vivo
[1] = system: Housefly [Musca domestica]; test: Housefly insecticidal test (HF); details: per 25 female houseflies, 48 hours
[2] = system: Tobacco Budworm [Heliothis virescens (Fabricius)] eggs; test: Tobacco budworm egg test (TBW-E); details: percent in solution
[3] = system: Cabbage Looper [Trichoplusia ni (Hubner)]; test: Cabbage looper test (CL); details: second-instar larvae, 3-5 days, percent in solution
[4] = system: Aster Leafhopper [Macrosteles fascifrens (Stal)]; test: Aster leafhopper test (LH); details: adults/nymphs, 48 hours, percent in solution
[5] = system: Maize weevil [Sitophilus Zeamais (Motschulsky)]; test: Maize weevil test (MW); details: adult weevils, treated corn seeds, 48 hours, percent in solution
Procedure, shortened: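 Adult weevils (10) were placed with four corn seeds that had been dipped 2-3 s in compound dissolved in 50:50 acetone:water, then dried, and held at about 25° C. Mortality was scored at 48 h. LC50 was taken from dosage-mortality curves and expressed as percent compound in solution, from a 0.01% top concentration.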

[6] = system: Rice water weevil [Lissorhoptrus oryzophilus (Kuschel)]; test: Rice water weevil test (RWW); details: per weevil, topical, female adults, 48 hours
Experimental: The compounds in Tables 1 and 2 above were tested for insecticidal activity using the following testing procedures. LC50 values, based on the results of these tests and calculated according to dosage-mortality curves, are expressed in Table 3.
Rice water weevil [Lissorhoptrus oryzophilus (Kuschel)]
Test compounds were diluted in acetone. Droplets (1 ul) of test solutions were applied to the ventral abdomens of ten female adult weevils. The treated weevils were placed in containers with wet cotton balls and rice foliage. The containers were covered and kept at a temperature of about 25° C. Mortality was recorded after 48 hours. […] The LC50 values are expressed below in Table 3 under the heading "RWW" in terms of μg of test compound per weevil.

[7] = system: Tobacco Budworm [Heliothis virescens (Fabricius)]; test: Tobacco budworm contact test (TBW-C); details: second-instar larvae, 5 days, percent in solution
Procedure, shortened: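 Cotton cotyledons dipped 2–3 s in compound in 50:50 acetone–water, dried, then infested with 5 second-instar larvae and held 5 days at high humidity before scoring mortality.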

[8] = system: Beet Armyworm (Spodoptera exigua); test: Beet armyworm test (BAW); details: second-instar larvae, five days, percent in solution
Procedure, shortened: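 Sugar beet leaves were dipped 2-3 s in compound diluted in 50-50 acetone-water, dried, then infested with five second-instar larvae in humid dishes. Mortality was scored after five days at concentrations from 0.1% downward. LC50 was taken from dosage-mortality curves as percent compound in solution.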

SMILES	LC50 HF [1]	LC50 TBW E [2]	LC50 CL [3]	LC50 LH [4]	LC50 MW [5]	LC50 RWW [6]	LC50 TBW C [7]	LC50 BAW [8]
CC(C)C(=Nc1ccc(C(F)(F)F)cc1)OCc1cccc(Oc2ccccc2)c1 [Compound 68]	37 µg	0.009%	0.006%	0.0001%	> 0.01%	0.15 µg	–	–
CCC(=Nc1ccc(F)c(Cl)c1)OCc1cccc(Oc2ccccc2)c1 [Compound 85]	7 µg	> 0.1%	0.004%	0.003%	> 0.01%	> 2.5 µg	–	–
Fc1ccc(N=C(OCc2cccc(Oc3ccccc3)c2)C2CC2)cc1Cl [Compound 113]	15 µg	0.1%	0.005%	–	–	> 2.5 µg	–	–
CC(C)C(=Nc1ccc(F)c(Cl)c1)OCc1cccc(Oc2cccc(F)c2)c1 [Compound 125]	12 µg	0.025%	0.0007%	> 0.05%	> 0.01%	> 2.5 µg	–	–
CC(C)C(=Nc1ccc(F)c(Cl)c1)OCc1cc(Oc2ccc(F)cc2)ccc1F [Compound 230]	36 µg	0.1%	0.0004%	–	0.038%	> 2.5 µg	–	–
CC(C)C(=Nc1ccc(F)c(Br)c1)OCc1cccc(Oc2ccccc2)c1 [Compound 254]	6 µg	0.026%	0.001%	–	–	> 2.5 µg	–	–
CC(C)C(=Nc1ccc(F)c(Cl)c1)OCc1cccc(Oc2ccc(F)cc2)c1F [Compound 262]	26 µg	> 0.1%	0.0004%	–	0.005%	> 2.5 µg	–	–
CC(C)C(=Nc1cccc(I)c1)OCc1ccc(F)c(Oc2ccc(F)cc2)c1 [Compound 279]	4 µg	0.016%	0.00008%	0.0003%	> 0.01%	–	0.007%	0.0025%
CC(C)(F)C(=Nc1ccc(F)c(Cl)c1)OCc1ccc(F)c(Oc2ccc(F)cc2)c1 [Compound 310]	4.5 µg	0.015%	0.00006%	–	–	> 2.5 µg	–	–
CC(C)C(=Nc1ccc(C(F)(F)F)cc1)OCc1ccc(F)c(Oc2ccc(F)cc2)c1 [Compound 314]	21 µg	0.012%	0.00005%	–	–	0.11 µg	–	–
CC(C)C(=Nc1ccc(OC(F)(F)F)cc1)OCc1ccc(F)c(Oc2ccc(F)c(F)c2)c1 [Compound 347]	30 µg	> 0.1%	0.000075%	0.0002%	> 0.01%	–	0.0001%	0.00075%
CC(C)C(=Nc1ccc(F)c(F)c1F)OCc1cccc(Oc2ccc(F)cc2)c1 [Compound 348]	8 µg	> 0.1%	0.0002%	0.05%	> 0.01%	–	0.00075%	> 0.1%
CCOc1ccc(N=C(OCc2ccc(F)c(Oc3ccc(Cl)cc3)c2)C(C)C)cc1Cl [Compound 369]	> 100 µg	> 0.1%	0.0016%	–	> 0.01%	> 2.5 µg	–	–
CCOc1ccc(N=C(OCc2ccc(F)c(Oc3ccccc3)c2)C(C)C)cc1Cl [Compound 370]	< 100 µg	0.02%	0.00034%	–	> 0.01%	> 2.5 µg	–	–
CC(C)C(=Nc1cccc(F)c1)OCc1ccc(F)c(Oc2ccc(Cl)cc2)c1 [Compound 375]	7.9 µg	0.04%	> 0.1%	–	> 0.01%	> 2.5 µg	–	–
CC(C)C(=Nc1ccc(Cl)c(Cl)c1)OCc1ccc(F)c(Oc2ccccc2)c1 [Compound 376]	17 µg	0.02%	0.00037%	–	0.0061%	0.1 µg	–	–
CC(C)C(=Nc1ccc(C(F)(F)F)c(Br)c1)OCc1ccc(F)c(Oc2ccc(Cl)cc2)c1 [Compound 377]	< 100 µg	> 0.1%	0.00062%	–	> 0.01%	> 2.5 µg	–	–
CC(C)C(=Nc1ccc(Br)cc1)OCc1ccc(F)c(Oc2ccc(Cl)cc2)c1 [Compound 378]	< 100 µg	0.02%	0.00034%	–	> 0.01%	> 2.5 µg	–	–
CC(C)C(=Nc1ccc(Br)c(Cl)c1)OCc1cccc(Oc2ccc(Cl)cc2)c1 [Compound 380]	> 100 µg	> 0.1%	> 0.1%	–	> 0.01%	> 2.5 µg	–	–
CC(C)C(=Nc1ccc(Br)c(Cl)c1)OCc1ccc(F)c(Oc2ccc(Cl)cc2)c1 [Compound 381]	< 100 µg	0.018%	0.00092%	–	> 0.01%	> 2.5 µg	–	–
CC(C)C(=Nc1ccc(Br)c(Cl)c1)OCc1ccc(F)c(Oc2ccc(F)cc2)c1 [Compound 382]	< 100 µg	0.027%	0.00029%	–	> 0.01%	> 2.5 µg	–	–
CC(C)C(=Nc1cccc(Br)c1)OCc1ccc(F)c(Oc2ccccc2)c1 [Compound 387]	< 100 µg	0.05%	0.0012%	–	> 0.01%	> 2.5 µg	–	–
CC(C)C(=Nc1ccc(Cl)cc1)OCc1ccc(F)c(Oc2ccc(Cl)cc2)c1 [Compound 391]	< 100 µg	0.035%	0.00029%	–	–	> 2.5 µg	–	–
C=C(C)C(=Nc1ccc(C(F)(F)F)cc1)OCc1ccc(F)c(Oc2ccccc2)c1 [Compound 431]	9.8 µg	0.025%	0.00017%	–	0.0037%	0.084 µg	–	–
CC(C)C(=Nc1ccc(C(F)(F)F)c(Br)c1)OCc1ccc(F)c(Oc2ccc(Cl)cc2)c1 [Compound 433]	< 100 µg	0.02%	0.00017%	–	0.005%	0.078 µg	–	–
CC(C)C(=Nc1ccc(Cl)c(OCC(F)(F)F)c1)OCc1ccc(F)c(Oc2ccc(Cl)cc2)c1 [Compound 452]	> 100 µg	< 0.1%	0.0017%	–	> 0.01%	0.1 µg	–	–
